Test results taken from patent US20110038835A1, “ANILIDES AND ANALOGS AS RHO KINASE INHIBITORS” (The Scripps Research Institute, priority 2007, published 2011).

Columns and labels:
[1] = target: ROCK-II (1-543) (UniProt Q62868); assay: Enzymatic Rho kinase assay (Kinase-Glo, S6-peptide phosphorylation); type: biochemical; details: 20 μM ATP, 20 μM S6-peptide, 50 min at RT
Procedure: Enzymatic Rho Kinase (ROCK I and ROCK II) Assays.
The assay is based on ability of Rhok2 to phosphorylate a specific peptide sequence derived from its substrate—ribosomal protein S6 (amino acid residues 229-239). Rhok2 uses ATP as a donor of phosphate for the phosphorylation of the substrate, which leads to the depletion of ATP in the reaction mix. An assay kit (“Kinase-Glo”, Promega) was used to quantify enzyme activity. Using this kit, residual amounts of ATP are measured by a secondary enzymatic reaction, through which luciferase utilizes the remaining ATP to produce luminescence. Luminescent signal is directly proportional to ATP concentration and inversely proportional to Rhok2 activity.
This dose response assay was conducted in 1536 well plate format. Each concentration was tested nominally in triplicate. Protocol Summary: A 5 μL mixture of a 20 μM S6-peptide (LCB-[…]-NH2) and 20 μM ATP in Kinase buffer (50 mM Hepes pH 7.3, 10 mM MgCl2, 0.1% BSA, and 2 mM DTT) was added to the well of a plate. 20 nL of 90% DMSO/10% water containing the compound(s) to be tested (or no compound for control wells) was added. The reaction was initiated by addition of 5 μL of 8 nM ROCK-II (1-543) in Kinase buffer. […] The plate was read after 10 min incubation time at RT on the Viewlux in luminescence mode.

[2] = system: A7r5 cells; assay: Myosin light chain double phosphorylation assay (ppMLC cell assay); type: cell-based; details: inhibitor 1 h, 10 μM LPA for 10 min
Procedure: Myosin Light Chain Double Phosphorylation Assays (ppMLC Cell Assay).
A7r5 cells were plated at 5000 cells/well in a 96 well Packard View Plate (Perkin Elmer) in DMEM +10% FBS. After attachment overnight, cells were serum starved for 4 h and treated with inhibitor in 0.25% DMSO final concentration for 1 h at 37° C. Cells were then treated with 10 μM lysophosphatitic acid (LPA) for 10 min. Following treatment, cells were immediately fixed with 4% paraformaldehyde for 30 minutes. After a brief wash in 0.1 M glycine, cells were permeablized in 0.2% Triton X for 10 minutes. Cells were then washed once in PBS and blocked in Li-COR blocking buffer (Li-COR Biosciences) for 1 h at 25 C. Cells were probed for either phosphorylated myosin light chain 20 (55 ng/mL), total myosin light chain (525 ng/mL) or anti-bovine α-tubulin (1 μg/mL), and incubated overnight at 4° C. Following three washes, cells were probed with goat-anti-rabbit or goat-anti-mouse IR800 (2 μg/mL in LI-COR block +0.025% Tween) for 1 h at 25° C. Nuclei were stained with TO-PRO-3 iodide (642/661) (1:4000) for 20 min, washed twice in PBS/0.05% Tween and read with an Odyssey Infrared Imaging System (LI-COR Biosciences).

[3] = system: N2a cells; assay: Neurite length assay (N2a cell assay); type: cell-based; details: Mus musculus, compound 1 h, neurite retraction induced by 5 uM LPA
Procedure: Neurite Length Assay (N2a, Cell Assay).
N2a cells are maintained in DMEM/FBS at 37 C and 5% CO2. For the experiment the cells were plated on a poly-D-lysine coated 96-well tissue culture plate. After attachment, cell differentiation was induced for 2 days by addition of 10 uM retinoic acid. Cells were treated for 1 h with a dilution of compounds in 0.3% DMSO final concentration before neurite retraction was induced by 5 uM LPA. Cells were stained for tubulin and nuclei and images were acquired on a INCell 1000 workstation. Images were analyzed using the developer toolbox and neurite length was quantitated.

IC50 [1]: 0.019 µM
IC50 [2]: 0.11 µM
IC50 [3]: 0.018 µM
Structure (SMILES): CN(C)CCOc1cc(-c2cn[nH]c2)c(F)cc1NC(=O)[C@H](N)c1ccc(F)cc1 [Example 26, (R)-2-amino-N-(2-(2-(dimethylamino)ethoxy)-5-fluoro-4-(1H-pyrazol-4-yl)phenyl)-2-(4-fluorophenyl)acetamide]
